Assay: Thermal stability test of polyvinyl chloride sheet in Geer oven at 185° C. (Example 7 composition)
Protocol: A heat stabilizer (acid-capturing agent) shown in Table 3 was mixed with the above components other than the heat stabilizer in the above amounts, and the mixture was uniformly mixed. Then, it was kneaded with an open roll for 3 minutes at 180° C., to prepare a sheet having a thickness of about 1 mm. The sheet was placed in a Geer oven set at 185° C., and it was estimated for a thermal stability. […] Concerning properties required for the heat stabilizer, the heat stabilizer was required to be nonpoisonous and a low price, to have good dispersibility, to be almost free from coloration, and to give a long period of time before blackening.
In Example 7, the calcium hydroxide of the present invention as a heat stabilizer was replaced with a calcium hydroxide obtained by surface-treating a commercially available calcium hydroxide used in Comparative Example 1 (5-1), lead stearate (5-2), and A type zeolite (5-3). These cases were estimated.

Sequence: A type zeolite [5-3]
- Thermal stability (period of time taken until the sheet was blackened): 40 min
